Source: US20250296953A1, “3,4-THIAZOLO-STEROIDS AND METHODS OF MAKING AND USING THE SAME” (Arkansas State University - Jonesboro, priority 2018, published 2025)
Read-outs that look alike come from different tables or passages of the source.

Assays:
glioblastoma (SF-295) = experiment: NCI 60 five dose screen; conditions: for GI50 / CC50: Homo sapiens; for GI50: SF-295; for CC50: SF-295, read-out: LC50; for TGI: SF-295 (CNS Cancer), five dose
NCI-H522 (NSCLC) = experiment: NCI 60 one dose screen; type: cell-based, human; conditions: Non-small Cell Lung Cancer
[1] = tested on: 60 different human tumor cell lines; conditions: for TGI: five dose
SF-295 = experiment: NCI 60 one dose screen; type: cell-based, human; conditions: one dose; CNS Cancer; SF-295
SK-MEL-28 = experiment: Melanoma cytotoxicity assay (resazurin); type: cell-based; conditions: SK-MEL-28 melanoma cells, 24 hours with compound, resazurin; concentration not given
Summary of the method: (§1)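 ~4000 cells/well seeded 24 h, then compound added in triplicate for 24 h at 37° C, 5% CO2. Resazurin added for 6 h; fluorescence at 544/590 nm, background-subtracted and normalised to DMSO wells as % viability; IC50 from sigmoidal fit of serial dilutions.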

SK-MEL-25 = experiment: Melanoma cytotoxicity assay (resazurin); type: cell-based; conditions: SK-MEL-25 melanoma cells, 24 hours with compound, resazurin; concentration not given
Summary of the method: as §1

gliosarcoma (SF-539) = experiment: NCI 60 five dose screen; conditions: for GI50 / CC50: Homo sapiens; for GI50: SF-539; for CC50: SF-539, read-out: LC50; for TGI: SF-539 (CNS Cancer), five dose
[2] = A549/ATCC (Non-small Cell Lung Cancer)
[3] = EKVX (Non-small Cell Lung Cancer)
[4] = HOP-62 (Non-small Cell Lung Cancer)
[5] = HOP-92 (Non-small Cell Lung Cancer)
[6] = NCI-H23 (Non-small Cell Lung Cancer)
[7] = NCI-H226 (Non-small Cell Lung Cancer)
[8] = NCI-H322M (Non-small Cell Lung Cancer)
[9] = NCI-H460 (Non-small Cell Lung Cancer)
[10] = NCI-H522 (Non-small Cell Lung Cancer)

Compound: C[C@]12CCc3sc(Nc4cccc(O)c4)nc3C1=CC[C@@H]1[C@@H]2CC[C@]2(C)C(=O)CC[C@@H]12 [IIa.17, (1S,2R,13R,14S,18S)-7-(3-hydroxyanilino)-2,18-dimethyl-6-thia-8-azapentacyclo[11.7.0.02,10.05,9.014,18]icosa-5(9),7,10-trien-17-one]
- GI50 (glioblastoma (SF-295)): 8.98 µM
- CC50 (glioblastoma (SF-295)): > 100 µM
- TGI (glioblastoma (SF-295)): >1.00E−4
- Growth Percent (NCI-H522 (NSCLC)): −56.41%
- LC50 [1]: >l.00E−4
- TGI ([1]; 786-0 (Renal Cancer)): 1.31E−5
- TGI ([1]; A498 (Renal Cancer)): >1.00E−4
- TGI [1, 2]: >1.00E−4
- TGI ([1]; ACHN (Renal Cancer)): 2.95E−5
- TGI ([1]; CAKI-1 (Renal Cancer)): 3.02E−5
- TGI ([1]; CCRF-CEM (Leukemia)): >1.00E−4
- TGI ([1]; COLO 205 (Colon Cancer)): 3.74E−5
- TGI ([1]; DU-145 (Prostate Cancer)): 4.09E−5
- TGI [1, 3]: >1.00E−4
- TGI ([1]; HCC-2998 (Colon Cancer)): 4.48E−5
- TGI ([1]; HCT-15 (Colon Cancer)): 9.71E−6
- TGI ([1]; HCT-116 (Colon Cancer)): 4.17E−6
- TGI [1, 4]: >1.00E−4
- TGI [1, 5]: 6.79E−5
- TGI ([1]; HS 578T (Breast Cancer)): >1.00E−4
- TGI ([1]; HT29 (Colon Cancer)): 1.76E−5
- TGI ([1]; IGROV1 (Ovarian Cancer)): >1.00E−4
- TGI ([1]; K-562 (Leukemia)): >1.00E−4
- TGI ([1]; KM12 (Colon Cancer)): 2.94E−5
- TGI ([1]; LOX IMVI (Melanoma)): 1.08E−5
- TGI ([1]; M14 (Melanoma)): 5.09E−5
- TGI ([1]; MALME-3M (Melanoma)): >1.00E−4
- TGI ([1]; MCF7 (Breast Cancer)): 3.28E−5
- TGI ([1]; MDA-MB-231/ATCC (Breast Cancer)): >1.00E−4
- TGI ([1]; MDA-MB-435 (Melanoma)): >1.00E−4
- TGI ([1]; MDA-MB-468 (Breast Cancer)): 1.46E−5
- TGI ([1]; MOLT-4 (Leukemia)): >1.00E−4
- TGI [1, 6]: >1.00E−4
- TGI [1, 7]: 4.50E−5
- TGI [1, 8]: >1.00E−4
- TGI [1, 9]: 2.79E−5
- TGI [1, 10]: 2.36E−5
- TGI ([1]; NCI/ADR-RES (Ovarian Cancer)): >1.00E−4
- TGI ([1]; OVCAR-3 (Ovarian Cancer)): 5.08E−5
- TGI ([1]; OVCAR-4 (Ovarian Cancer)): >1.00E−4
- TGI ([1]; OVCAR-5 (Ovarian Cancer)): >1.00E−4
- TGI ([1]; OVCAR-8 (Ovarian Cancer)): >1.00E−4
- TGI ([1]; PC-3 (Prostate Cancer)): 6.37E−5
- TGI ([1]; RXF 393 (Renal Cancer)): 1.42E−5
- TGI ([1]; SF-268 (CNS Cancer)): 7.00E−5
- TGI ([1]; SK-MEL-2 (Melanoma)): 6.08E−5
- TGI ([1]; SK-MEL-5 (Melanoma)): 2.60E−5
- TGI ([1]; SK-MEL-28 (Melanoma)): >1.00E−4
- TGI ([1]; SK-OV-3 (Ovarian Cancer)): >1.00E−4
- TGI ([1]; SN12C (Renal Cancer)): 2.53E−5
- TGI ([1]; SNB-19 (CNS Cancer)): >1.00E−4
- TGI ([1]; SNB-75 (CNS Cancer)): 7.25E−5
- TGI ([1]; SW-620 (Colon Cancer)): 1.56E−5
- TGI ([1]; T-47D (Breast Cancer)): >1.00E−4
- TGI ([1]; TK-10 (Renal Cancer)): 5.48E−5
- TGI ([1]; U251 (CNS Cancer)): 1.93E−5
- TGI ([1]; UACC-62 (Melanoma)): 2.96E−4
- TGI ([1]; UACC-257 (Melanoma)): 9.45E−5
- TGI ([1]; UO-31 (Renal Cancer)): 1.94E−5
- Growth Percent (SF-295): −47.70%
- SK-MEL-28 (% inhibition) (SK-MEL-28): 87%
- SK-MEL-25 (% inhibition) (SK-MEL-25): 79%
- GI50 (gliosarcoma (SF-539)): 3.04 µM
- CC50 (gliosarcoma (SF-539)): 79.9 µM
- TGI (gliosarcoma (SF-539)): 1.33E−5

Compound: C[C@]12CCc3sc(Nc4ccc(OC(F)(F)F)cc4)nc3C1=CC[C@@H]1[C@@H]2CC[C@]2(C)C(=O)CC[C@@H]12 [IIa.19, (1S,2R,13R,14S,18S)-2,18-dimethyl-7-[4-(trifluoromethoxy)anilino]-6-thia-8-azapentacyclo[11.7.0.02,10.05,9.014,18]icosa-5(9),7,10-trien-17-one]
- GI50 (glioblastoma (SF-295)): 0.7 µM
- CC50 (glioblastoma (SF-295)): 7.16 µM
- TGI (glioblastoma (SF-295)): 2.44E−6
- Growth Percent (NCI-H522 (NSCLC)): 89.13%
- TGI [1, 2]: 1.61E−5
- TGI ([1]; CCRF-CEM (Leukemia)): >1.00E−4
- TGI ([1]; COLO 205 (Colon Cancer)): 6.76E−6
- TGI [1, 3]: 1.74E−5
- TGI ([1]; HCC-2998 (Colon Cancer)): 1.86E−5
- TGI ([1]; HCT-15 (Colon Cancer)): 4.10E−6
- TGI ([1]; HCT-116 (Colon Cancer)): 2.78E6
- TGI ([1]; HL-60(TB) (Leukemia)): 4.44E−6
- TGI [1, 4]: 4.19E−6
- TGI [1, 5]: 3.44E−6
- TGI ([1]; HT29 (Colon Cancer)): 1.09E−5
- TGI ([1]; K-562 (Leukemia)): 6.64E−6
- TGI ([1]; KM12 (Colon Cancer)): 1.50E−5
- TGI ([1]; LOX IMVI (Melanoma)): 3.18E−6
- TGI ([1]; MALME-3M (Melanoma)): 1.68E−5
- TGI ([1]; MOLT-4 (Leukemia)): 1.19E−5
- TGI [1, 6]: 2.17E−5
- TGI [1, 7]: 4.41E−5
- TGI [1, 8]: 4.89E−5
- TGI [1, 9]: 1.18E−5
- TGI [1, 10]: 4.56E−6
- TGI ([1]; SF-268 (CNS Cancer)): 1.23E−5
- TGI ([1]; SNB-19 (CNS Cancer)): 9.93E−6
- TGI ([1]; SNB-75 (CNS Cancer)): 6.23E−6
- TGI ([1]; SW-620 (Colon Cancer)): 5.00E−6
- TGI ([1]; U251 (CNS Cancer)): 3.26E−6
- Growth Percent (SF-295): −2.71%
- SK-MEL-28 (% inhibition) (SK-MEL-28): 97%
- SK-MEL-25 (% inhibition) (SK-MEL-25): 24%
- GI50 (gliosarcoma (SF-539)): 1.05 µM
- CC50 (gliosarcoma (SF-539)): 7.07 µM
- TGI (gliosarcoma (SF-539)): 2.72E−6
